# Results: patent publication US6881741B2 (ViroChem Pharma Inc., priority 2001, dated 2005)
# pIC50: −log10 of the molar value.
# Biological target: recombinant HCV NS5B (HCV RNA-dependent RNA polymerase) (Hepatitis C virus genotype 1b, UniProt P26663)
# Assay: biochemical
# Conditions: HCV polymerase activity, list of compounds of Example 27; read-out: IC50 (polymerase activity)
# recombinant HCV NS5B (HCV RNA-dependent RNA polymerase), sequence (P26663 2420-3010 limits assumed): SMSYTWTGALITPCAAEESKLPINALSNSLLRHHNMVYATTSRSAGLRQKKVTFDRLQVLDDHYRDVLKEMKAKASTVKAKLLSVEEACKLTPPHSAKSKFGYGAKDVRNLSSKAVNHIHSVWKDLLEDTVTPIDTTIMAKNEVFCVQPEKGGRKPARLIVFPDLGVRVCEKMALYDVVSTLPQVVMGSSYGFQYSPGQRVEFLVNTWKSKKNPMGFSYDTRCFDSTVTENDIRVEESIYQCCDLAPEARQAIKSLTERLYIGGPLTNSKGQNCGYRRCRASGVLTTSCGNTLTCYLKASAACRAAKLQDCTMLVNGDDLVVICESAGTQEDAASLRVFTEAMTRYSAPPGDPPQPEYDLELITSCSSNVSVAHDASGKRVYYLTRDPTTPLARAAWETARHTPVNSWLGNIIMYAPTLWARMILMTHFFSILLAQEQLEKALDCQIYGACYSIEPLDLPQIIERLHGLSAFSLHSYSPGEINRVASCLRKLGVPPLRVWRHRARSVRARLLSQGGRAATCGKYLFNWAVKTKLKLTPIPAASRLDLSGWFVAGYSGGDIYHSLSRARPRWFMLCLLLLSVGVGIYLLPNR
row,Structure (SMILES),pIC50
1,"C=CCN(C(=O)Cc1ccc(OC)cc1)c1cc(-c2ccccc2)sc1C(=O)O [Compound 491, 3-{ALLYL-[2-(4-METHOXY-PHENYL)- ACETYL]-AMINO}-5-PHENYL-THIOPHENE- 2-CARBOXYLIC ACID]",< 4.70
2,"O=C(O)c1sc(-c2ccccc2)cc1N(CC1CCNCC1)C(=O)c1ccccc1Cl [Compound 520, 3-[(2-CHLORO-BENZOYL)-PIPERIDIN-4- YLMETHYL-AMINO]-5-PHENYL- THIOPHENE-2-CARBOXYLIC ACID]",> 5.30
3,"CC(=O)N(Cc1ccc(Cl)cc1)c1cc(-c2ccccc2)sc1C(=O)O [Compound 455, 3-[ACETYL-(4-CHLORO-BENZYL)-AMINO]- 5-PHENYL-THIOPHENE-2-CARBOXYLIC ACID]",4.70 to 5.30
4,"Cc1ccc(C(=O)N(c2cc(-c3cccc(C(F)(F)F)c3)sc2C(=O)O)C(C)C)c(O)c1 [Compound 428, 3-[(2-HYDROXY-4-METHYL-BENZOYL)- ISOPROPYL-AMINO]-5-(3- TRIFLUOROMETHYL-PHENYL)- THIOPHENE-2-CARBOXYLIC ACID]",4.70 to 5.30
5,"CCC(=O)N(Cc1ccccc1)c1cc(-c2ccccc2)sc1C(=O)O [Compound 451, 3-(BENZYL-PROPIONYL-AMINO)-5- PHENYL-THIOPHENE-2-CARBOXYLIC ACID]",> 5.30
6,"CC(C)CC(=O)N(Cc1ccccc1Cl)c1cc(-c2ccccc2)sc1C(=O)O [Compound 422, 3-[(2-CHLORO-BENZYL)-(3-METHYL- BUTYRYL)-AMINO]-5-PHENYL- THIOPHENE-2-CARBOXYLIC ACID]",4.70 to 5.30
7,"CC([C@H](O[Si](C)(C)C(C)(C)C)c1ccccc1)N(C(=O)c1ccc(Cl)cc1Cl)c1cc(-c2ccccc2)sc1C(=O)O (stereo in doubt) [Compound 556, 3-[[2-(TERT-BUTYL-DIMETHYL- SILANYLOXY)-1-METHYL-2-PHENYL- ETHYL]-(2,4-DICHLORO-BENZOYL)- AMINO]-5-PHENYL-THIOPHENE-2- CARBOXYLIC ACID]",4.70 to 5.30
8,"O=C(O)c1sc(-c2ccccc2)cc1N(C(=O)c1ccc(Cl)cc1Cl)C1CCNC1 (stereo not shown) [Compound 503, 3-[(2,4-DICHLORO-BENZOYL)- PYRROLIDIN-3-YL-AMINO]-5-PHENYL- THIOPHENE-2-CARBOXYLIC ACID]",4.70 to 5.30
9,"Cc1ccccc1CN(C(=O)C1CCC1)c1cc(-c2ccccc2)sc1C(=O)O [Compound 432, 3-[CYCLOBUTANECARBONYL-(2- METHYL-BENZYL)-AMINO]-5-PHENYL- THIOPHENE-2-CARBOXYLIC ACID]",4.70 to 5.30
10,"Cc1cccc(CN(C(=O)C(C)C)c2cc(-c3ccccc3)sc2C(=O)O)c1 [Compound 465, 3-[ISOBUTYRYL-(3-METHYL-BENZYL)- AMINO]-5-PHENYL-THIOPHENE-2- CARBOXYLIC ACID]",4.70 to 5.30
11,"CC1CCC(C(=O)N(c2cc(C3CCN(C)CC3)sc2C(=O)O)C(C)C)CC1 (stereo not shown) [Compound 536, 3-[ISOPROPYL-(4-METHYL- CYCLOHEXANECARBONYL)-AMINO]-5-(1- METHYL-PIPERIDIN-4-YL)-THIOPHENE-2- CARBOXYLIC ACID]",> 5.30
12,"O=C(O)c1sc(-c2ccccc2)cc1N(Cc1ccc(C(F)(F)F)cc1)C(=O)CC1CCCC1 [Compound 416, 3-[(2-CYCLOPENTYL-ACETYL)-(4- TRIFLUOROMETHYL-BENZYL)-AMINO]-5- PHENYL-THIOPHENE-2-CARBOXYLIC ACID]",4.70 to 5.30
13,"CC1CCC(C(=O)N(c2ccncc2)c2cc(-c3ccccc3)sc2C(=O)O)CC1 (stereo not shown) [Compound 525, 3-[(4-METHYL- CYCLOHEXANECARBONYL)-PYRIDIN-4- YL-AMINO]-5-PHENYL-THIOPHENE-2- CARBOXYLIC ACID]",> 5.30
14,"CC(=O)N(Cc1cccc(C)c1)c1cc(-c2ccccc2)sc1C(=O)O [Compound 434, 3-[ACETYL-(3-METHYL-BENZYL)-AMINO]- 5-PHENYL-THIOPHENE-2-CARBOXYLIC ACID]",4.70 to 5.30

# Same assay, conditions: related polymerase activity (Example 27 list); read-out: IC50
row,Structure (SMILES),pIC50
1,"CN(C(=O)c1cccs1)c1cc(-c2ccccc2)sc1C(=O)O [Compound 75, 3-(METHYL-(THIOPHENE-2-CARBONYL)-AMINO]-5-PHENYL-THIOPHENE-2-CARBOXYLIC ACID]",4.70 to 5.30
2,"CC(C)N(C(=O)c1ccc(Cl)cc1Cl)c1cc(-c2ccccc2)sc1C(=O)O [Compound 149, 3-[(2,4-DICHLORO-BENZOYL)-ISOPROPYL-AMINO]-5-PHENYL-THIOPHENE-2-CARBOXYLIC ACID]",> 5.30
3,"O=C(Nc1cc(-c2ccccc2)sc1C(=O)O)c1ccc(F)cc1F [Compound 77, 3-(2,4-DIFLUORO-BENZOYLAMINO)-5-PHENYL-THIOPHENE-2-CARBOXYLIC ACID]",< 4.70
4,"CC(=O)c1cccc(-c2cc(N(C)C(=O)c3ccc(C)cc3)c(C(=O)O)s2)c1 [Compound 272, 5-(3-ACETYL-PHENYL)-3-[METHYL-(4-METHYL-BENZOYL)-AMINO]-THIOPHENE-2-CARBOXYLIC ACID]",4.70 to 5.30
5,"CN(C(=O)c1ccccc1Cl)c1cc(-c2ccccc2)sc1C(=O)O [Compound 95, 3-[(2-CHLORO-BENZOYL)-METHYL-AMINO]-5-PHENYL-THIOPHENE-2-CARBOXYLIC ACID]",4.70 to 5.30
6,"CCCCCc1ccc(S(=O)(=O)Nc2cc(-c3ccccc3)sc2C(=O)O)cc1 [Compound 174, 3-(4-PENTYL-BENZENESULFONYLAMINO)-5-PHENYL-THIOPHENE-2-CARBOXYLIC ACID]",4.70 to 5.30
7,"O=C(O)c1sc(-c2ccccc2)cc1NS(=O)(=O)c1cc(OCC(F)(F)F)ccc1OCC(F)(F)F [Compound 176, 3-[2,5-BIS-(2,2,2-TRIFLUORO-ETHOXY)-BENZENESULFONYLAMINO]-5-PHENYL-THIOPHENE-2-CARBOXYLIC ACID]",4.70 to 5.30
8,"Cc1ccc(C(=O)N(C)c2cc(-c3ccc([N+](=O)[O-])cc3)sc2C(=O)O)cc1 [Compound 194, 3-[METHYL-(4-METHYL-BENZOYL)-AMINO]-5-(4-NITRO-PHENYL)-THIOPHENE-2-CARBOXYLIC ACID]",4.70 to 5.30
9,"Cc1ccccc1S(=O)(=O)Nc1cc(-c2ccccn2)sc1C(=O)O [Compound 128, 5-PYRIDIN-2-YL-3-(TOLUENE-2-SULFONYLAMINO)-THIOPHENE-2-CARBOXYLIC ACID]",> 5.30
10,"CN(C(=O)c1sc2ccccc2c1Cl)c1cc(-c2ccccc2)sc1C(=O)O [Compound 256, 3-[(3-CHLORO-BENZO[B]THIOPHENE-2-CARBONYL)-METHYL-AMINO]-5-PHENYL-THIOPHENE-2-CARBOXYLIC ACID]",4.70 to 5.30
11,"CN(C(=O)c1ccc(Cl)cc1Cl)c1cc(-c2ccccc2)sc1C(=O)O [Compound 9, 3-[(2,4-DICHLORO-BENZOYL)-METHYL-AMINO]-5-PHENYL-THIOPHENE-2-CARBOXYLIC ACID]",> 5.30
12,"C=CCN(C(=O)Cc1ccc(Cl)cc1Cl)c1cc(-c2ccccc2)sc1C(=O)O [Compound 348, 3-{ALLYL-[2-(2,4-DICHLORO-PHENYL)- ACETYL]-AMINO}-5-PHENYL-THIOPHENE- 2-CARBOXYLIC ACID]",4.70 to 5.30
13,"O=C(O)c1sc(-c2ccccc2)cc1NS(=O)(=O)c1ccc(F)c(F)c1F [Compound 222, 5-PHENYL-3-(2,3,4-TRIFLUORO-BENZENESULFONYLAMINO)-THIOPHENE-2-CARBOXYLIC ACID]",4.70 to 5.30
14,"Cc1ccc(S(=O)(=O)Nc2cc(-c3ccc(C#N)cc3)sc2C(=O)O)c(C)c1 [Compound 288, 5-(4-CYANO-PHENYL)-3-(2,4-DIMETHYL-BENZENESULFONYLAMINO)-THIOPHENE-2-CARBOXYLIC ACID]",> 5.30
15,"Cc1csc(C(=O)N(C)c2cc(-c3ccccc3)sc2C(=O)O)c1 [Compound 293, 3-[METHYL-(4-METHYL-THIOPHENE-2-CARBONYL)-AMINO]-5-PHENYL-THIOPHENE-2-CARBOXYLIC ACID]",4.70 to 5.30
16,"O=C(O)c1sc(-c2ccccc2)cc1NS(=O)(=O)c1ccc(F)c(C(F)(F)F)c1 [Compound 145, 3-(4-FLUORO-3-TRIFLUOROMETHYL-BENZENESULFONYLAMINO)-5-PHENYL-THIOPHENE-2-CARBOXYLIC ACID]",4.70 to 5.30
17,"Cc1ccc(C(=O)N(C)c2cc(-c3ccccc3)sc2C(=O)O)c(F)c1F [Compound 280, 3-[(2,3-DIFLUORO-4-METHYL-BENZOYL)-METHYL-AMINO]-5-PHENYL-THIOPHENE-2-CARBOXYLIC ACID]",> 5.30
18,"O=C(Nc1cc(Cl)nc(Cl)c1)Nc1cc(-c2ccccc2)sc1C(=O)O [Compound 28, 3-[3-(2,6-DICHLORO-PYRIDIN-4-YL)-UREIDO]-5-PHENYL-THIOPHENE-2-CARBOXYLIC ACID]",> 5.30
19,"Cc1ccccc1C(=O)N(C)c1cc(-c2ccccc2)sc1C(=O)O [Compound 97, 3-[METHYL-(2-METHYL-BENZOYL)-AMINO]-5-PHENYL-THIOPHENE-2-CARBOXYLIC ACID]",< 4.70
20,"Cc1ccc(C(=O)N(Cc2ccccc2C)c2cc(-c3ccccc3)sc2C(=O)O)cc1 [Compound 343, 3-[(4-METHYL-BENZOYL)-(2-METHYL- BENZYL)-AMINO]-5-PHENYL-THIOPHENE- 2-CARBOXYLIC ACID]",> 5.30
21,"COc1cc(C)ccc1S(=O)(=O)Nc1cc(-c2ccccc2)sc1C(=O)O [Compound 142, 3-(2-METHOXY-4-METHYL-BENZENESULFONYLAMINO)-5-PHENYL-THIOPHENE-2-CARBOXYLIC ACID]",4.70 to 5.30
22,"O=C(O)c1sc(-c2ccccc2)cc1NS(=O)(=O)c1cc(Cl)c(O)c(Cl)c1 [Compound 169, 3-(3,5-DICHLORO-4-HYDROXY-BENZENESULFONYLAMINO)-5-PHENYL-THIOPHENE-2-CARBOXYLIC ACID]",4.70 to 5.30
23,"CC(C)CCC(=O)N(C)c1cc(-c2ccccc2)sc1C(=O)O [Compound 390, 3-[METHYL-(4-METHYL-PENTANOYL)- AMINO]-5-PHENYL-THIOPHENE-2- CARBOXYLIC ACID]",4.70 to 5.30
24,"Cc1ccc(C(=O)N(C)c2cc(-c3ccc(C(F)(F)F)cc3)sc2C(=O)O)cc1 [Compound 275, 3-[METHYL-(4-METHYL-BENZOYL)-AMINO]-5-(4-TRIFLUOROMETHYL-PHENYL)-THIOPHENE-2-CARBOXYLIC ACID]",> 5.30
25,"Cc1cc(S(=O)(=O)Nc2cc(-c3ccc(F)cc3)sc2C(=O)O)c(C)cc1Cl [Compound 8, 3-(4-CHLORO-2,5-DIMETHYL-BENZENESULFONYLAMINO)-5-(4-FLUORO-PHENYL)-THIOPHENE-2-CARBOXYLIC ACID]",> 5.30
26,"Cc1ccccc1S(=O)(=O)Nc1cc(-c2ccc(F)c(Cl)c2)sc1C(=O)O [Compound 91, 5-(3-CHLORO-4-FLUORO-PHENYL)-3-(TOLUENE-2-SULFONYLAMINO)-THIOPHENE-2-CARBOXYLIC ACID]",4.70 to 5.30
